Source: patent US7981893B2, “Heteroaryl compounds, compositions thereof, and methods of treatment therewith” (Signal Pharmaceuticals, LLC, priority 2006, dated 2011)

Tests used:
Format in all cases: biochemical
[1] = target: T1, Syk (Homo sapiens, UniProt P43405); experiment: Syk HTRF Assay; conditions: HTRF screening assay
T1 construct: purchased Carna Biosciences 08-176
Protocol: 5 μl/well DMSO is added to Column 2 Wells A-O and 29.5 μl to well P2 of Greiner 384-well polypropylene plate. 20 μl/well DMSO is added to Columns 1 and 3-12.
25 mM compound solutions are prepared by the addition of 25 μl of 30 mM compound to Column 2 and 0.5 μl 30 mM reference control to well P2.
Serial dilution is then performed by the following steps: (i) compounds in Column 2 are mixed by pipetting 20 μl up and down 6×; (ii) 10 μl/well compounds in DMSO are transferred from one column to the next column for Columns 2-11; (iii) wells are mixed by pipetting 20 μl up and down 6×; (iv) tips washed 3×25 μl DMSO, 2×25 μl next DMSO.
The following buffers are prepared:
Dilution Buffer: 50 mM HEPES pH 7.6; 1 mM DTT; 10 mM MgCl2; 0.01% Triton X100; 0.01% BSA; 0.1 mM EDTA.
Enzyme Mix in Dilution Buffer: 8.621 ng/ml Syk (Carna Biosciences 08-176).
Start Mix in Dilution Buffer: 87.5 μM ATP; 80 nM Substrate Peptide (American Peptide Company 332722).
14.5 μl/well Enzyme Mix or Dilution Buffer (Background Controls) is added to Costar 384-well black plates.
Compound addition and mixture is performed by the following steps: (i) 0.5 μl/well DMSO/compounds in DMSO transferred from Greiner 384-well polypropylene plate to left half of assay plate containing 14.5 μl/well Enzyme Mix and Dilution Buffer; (ii) Mix by pipetting 10 μl up and down 4×; (iii) tips are washed 4×10 μl in DMSO, 2×20 μl in other DMSO; (iv) steps i-iii are repeated with transfer to right half of assay plate; (v) steps i-iv are repeated with each compound/assay plate until all plates are completed.
10 μl/well Start Mix is added and incubated at room temperature on shaker for 2 minutes (1 hour total reaction time).
Stop Solution in Dilution Buffer: 120 mM EDTA
Antibody Mix in Dilution Buffer: 4.86 μg/ml DyLight 647 Streptavidin (Pierce 21824); 1 μg/ml Lance Eu-Anti-Phosphotyrosine (PerkinElmer AD0069).
5 μl/well[…] is added and incubated at room temperature on shaker for 2 minutes.
[…] Antibody Mix is added and Incubated at room temperature on shaker for 2 minutes (4 hours to overnight total time).
Plates are read at 665 nm and 620 nm emission on Analyst GT protocol HTRF_SP_A or EnVision protocol Steve's TR-FRET.

[2] = target: T2, PKCθ (Homo sapiens, UniProt Q04759); experiment: PKCθ IMAP Assay; conditions: IMAP fluorescence polarization screening assay, 35 μM ATP
T2 construct: purchased Invitrogen
T2 sequence (Q04759 whole entry): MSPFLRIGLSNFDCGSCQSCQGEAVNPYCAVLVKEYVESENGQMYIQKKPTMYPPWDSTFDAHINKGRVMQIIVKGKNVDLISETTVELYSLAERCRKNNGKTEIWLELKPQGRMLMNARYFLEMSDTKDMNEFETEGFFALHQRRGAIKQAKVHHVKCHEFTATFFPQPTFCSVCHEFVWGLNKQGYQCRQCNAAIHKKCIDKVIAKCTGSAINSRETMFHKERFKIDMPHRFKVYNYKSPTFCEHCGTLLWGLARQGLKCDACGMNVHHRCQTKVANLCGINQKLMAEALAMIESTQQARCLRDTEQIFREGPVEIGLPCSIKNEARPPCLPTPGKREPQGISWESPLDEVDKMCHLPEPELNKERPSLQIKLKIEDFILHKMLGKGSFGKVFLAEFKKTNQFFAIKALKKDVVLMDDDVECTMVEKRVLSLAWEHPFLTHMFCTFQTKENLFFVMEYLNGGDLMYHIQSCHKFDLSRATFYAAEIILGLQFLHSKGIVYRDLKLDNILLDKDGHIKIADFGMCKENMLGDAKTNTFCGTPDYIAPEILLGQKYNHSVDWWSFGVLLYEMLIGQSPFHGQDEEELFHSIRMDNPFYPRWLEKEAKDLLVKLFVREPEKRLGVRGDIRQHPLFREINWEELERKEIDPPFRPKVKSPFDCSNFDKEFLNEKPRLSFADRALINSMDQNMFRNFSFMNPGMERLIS
How it was run: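 IMAP fluorescence polarization with 0.5 nM PKCθ, 100 nM FAM-AKRRRLSSLRA, 35 μM ATP, 2.5% DMSO, pH 7.6 HEPES with phosphatidyl serine/diacylglycerol. Compound pre-incubated with enzyme 45 min; reaction 60 min, then binding beads ≥30 min before FP read.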

[3] = target: T3, mTOR (Homo sapiens, UniProt P42345); experiment: mTOR HTR-FRET Assay; conditions: HTR-FRET screening assay, GST-p70S6 kinase fragment substrate
T3 construct: Dilute TOR fraction 1:14 in “Simple TOR Buffer”
Protocol: The following is an example of an assay that can be used to determine the mTOR inhibitory activity of a test compound. Reagents are prepared as follows:
“Simple TOR buffer” (used to dilute high glycerol TOR fraction): 10 mM Tris pH 7.4, 100 mM NaCl, 0.1% Tween-20, 1 mM DTT (from 1M stock frozen at −20° C. just prior to use). For convenience a large quantity of “Simple TOR buffer” w/o DTT can be stored at 4° C. It can be brought to room temperature and DTT added just prior to dilution of TOR fraction.
5×KB/5×Mn/5×ATP solution (used to dilute substrate GST-p70S6kin 81 a.a. just prior to use) (40 ml screen quantity shown):
Enzyme solution: Dilute TOR fraction 1:14 in “Simple TOR Buffer”. For current lot that is 640 μg/ml TOR fraction diluted 14× to yield 45.7 μg/ml TOR in buffer (i.e. 7.85 ml TOR pooled fraction+102.1 ml Simple TOR buffer=110 ml 14× diluted TOR fraction). Each Enzyme Lot must be QC'd prior to assay.
Substrate solution: This may be prepared just prior to assay if preferred. Dilute 5.3 mg/ml GST-p70S6kinase fragment stock to 3.5 μg/ml (97 nM) working stock in 5×KB/5×Mn/5×ATP solution (i.e. 26.41 μL (5.3 mg/ml) GST-p70S6+40 ml 5×KB/5×Mn/5×ATP=40 ml 3.5 μg/ml (97 nM)).
Assay Buffer (for dilution of Antibodies used in Antibody Detection Reagent):
Antibody Detection Reagent (this reagent should be made just prior to addition to Assay Plates):
Using PlateTrak program (Screen) or Matrix Pipettor (SAR), 19.5 μL of diluted TOR fraction is added to assay plate in all test, reference or positive control wells. 19.5 μL of “Simple TOR buffer” is added to all negative control wells. If treating multiple plates with the same compounds, can increase volume of enzyme to multiples of 19.5 μL in a tall 384 well polypropylene plate.
Using EP3, 0.5 μl of test, reference or control DMSO is added to each well with mixing. Plates are incubated for 30 minutes at room temperature.
Using PlateTrak program (Screen) or Matrix Pipettor (SAR) 5 μL of 5×KB/5×Mn/5×ATP/5× substrate solution is added to each well of the assay plate to start the reaction. The solutions are mixed well and incubated for 2 hours at room temperature.
Using PlateTrak program (Screen) or Matrix Pipettor (SAR) 5 μL of 60 mM EDTA is added to stop the reaction. The solutions are mixed well and allowed to sit for 15-20 minutes before the next step.
Using PlateTrak program (Screen) or Matrix Pipettor (SAR) 10 μl of Antibody Detection Reagent is added. The solutions are mixes well and incubated for 5 hours to O/N to allow antibodies to form complexes with phosphorylated substrate.
Plates are read on AnalystHT using protocol Multi-Method protocol.

| Compound | IC50 [1] | IC50 [2] | IC50 [3] |
| --- | --- | --- | --- |
| CC(C)[C@@H](CO)n1c(=O)[nH]c2ncc(-c3ccccc3)nc21 [Compound 1, (S)-1-(1-hydroxy-3-methylbutan-2-yl)-6-phenyl-1H-imidazo[4,5-b]pyrazin-2(3H)-one] | > 30 µM | > 30 µM |  |
| COc1ccc(C(C)C)cc1-c1cnc2[nH]c(=O)n([C@H](CO)C(C)C)c2n1 [Compound 8, (S)-1-(1-hydroxy-3-methylbutan-2-yl)-6-(5-isopropyl-2-methoxyphenyl)-1H-imidazo[4,5-b]pyrazin-2(3H)-one] | 0.1 to 5 µM | 0.1 to 5 µM |  |
| COc1ccc(C(C)C)cc1-c1cnc2[nH]c(=O)n([C@@H](CO)C(C)C)c2n1 [Compound 13, (R)-1-(1-hydroxy-3-methylbutan-2-yl)-6-(5-isopropyl-2-methoxyphenyl)-1H-imidazo[4,5-b]pyrazin-2(3H)-one] | 5.1 to 10 µM | 10.1 to 20 µM |  |
| COc1ccc(C(C)C)cc1-c1cnc2[nH]c(=O)n([C@H](C)C(C)C)c2n1 [Compound 28, (R)-6-(5-isopropyl-2-methoxyphenyl)-1-(3-methylbutan-2-yl)-1H-imidazo[4,5-b]pyrazin-2(3H)-one] | 0.1 to 5 µM | 0.1 to 5 µM |  |
| COc1ccc(C(C)C)cc1-c1cnc2[nH]c(=O)n([C@@H](C)C(C)C)c2n1 [Compound 30, (S)-6-(5-isopropyl-2-methoxyphenyl)-1-(3-methylbutan-2-yl)-1H-imidazo[4,5-b]pyrazin-2(3H)-one] | 0.1 to 5 µM | 20.1 to 30 µM |  |
| CC(c1ccccc1)n1c(=O)[nH]c2ncc(-c3cccc4cnccc34)nc21 (stereo not shown) [Compound 61, 6-(isoquinolin-5-yl)-1-(1-phenylethyl)-1H-imidazo[4,5-b]pyrazin-2(3H)-one] |  | 10.1 to 20 µM | 5.1 to 10 µM |
| Cc1nc2[nH]c(=O)n([C@@H](C)c3ccccc3)c2nc1-c1cccc2ncccc12 [Compound 68, 5-methyl-1-((S)-1-phenylethyl)-6-(quinolin-5-yl)-1H-imidazo[4,5-b]pyrazin-2(3H)-one] |  | > 30 µM | > 30 µM |
| Cc1nc2[nH]c(=O)n([C@H](C)c3ccccc3)c2nc1-c1cccc2ncccc12 [Compound 69, 5-methyl-1-((R)-1-phenylethyl)-6-(quinolin-5-yl)-1H-imidazo[4,5-b]pyrazin-2(3H)-one] |  | 5.1 to 10 µM | > 30 µM |
| CC(c1ccccc1)n1c(=O)[nH]c2ncc(-c3ccc4ncccc4c3)nc21 (stereo not shown) [Compound 73, 1-(1-phenylethyl)-6-(quinolin-6-yl)-1H-imidazo[4,5-b]pyrazin-2(3H)-one] |  | > 30 µM | 5.1 to 10 µM |
| CC(c1ccccc1)n1c(=O)[nH]c2ncc(-c3cccc(NS(C)(=O)=O)c3)nc21 (stereo not shown) [Compound 84, N-(3-(2-oxo-3-(1-phenylethyl)-2,3-dihydro-1H-imidazo[4,5-b]pyrazin-5-yl)phenyl)methanesulfonamide] |  | 10.1 to 20 µM | 0.1 to 5 µM |
| CC(c1ccccc1)n1c(=O)[nH]c2ncc(-c3ccc(S(C)(=O)=O)cc3)nc21 (stereo not shown) [Compound 85, 6-(4-(methylsulfonyl)phenyl)-1-(1-phenylethyl)-1H-imidazo[4,5-b]pyrazin-2(3H)-one] |  | > 30 µM | 5.1 to 10 µM |

Results, then the molecule that gave them:

| IC50 [1] | IC50 [2] | IC50 [3] | Compound |
| --- | --- | --- | --- |
| > 30 µM | 20.1 to 30 µM | > 30 µM | CC(C)[C@@H](CO)n1c(=O)[nH]c2ncc(-c3cccc4ncccc34)nc21 [Compound 11, (S)-1-(1-hydroxy-3-methylbutan-2-yl)-6-(quinolin-5-yl)-1H-imidazo[4,5-b]pyrazin-2(3H)-one] |
|  | > 30 µM | > 30 µM | O=c1[nH]c2ncc(-c3cccc4ncccc34)nc2n1C1CCOCC1 [Compound 57, 6-(quinolin-5-yl)-1-(tetrahydro-2H-pyran-4-yl)-1H-imidazo[4,5-b]pyrazin-2(3H)-one] |
|  | > 30 µM | 10.1 to 20 µM | O=c1[nH]c2ncc(-c3cccc4ncccc34)nc2n1C1CCCOC1 (stereo not shown) [Compound 58, 6-(quinolin-5-yl)-1-(tetrahydro-2H-pyran-3-yl)-1H-imidazo[4,5-b]pyrazin-2(3H)-one] |
|  | 10.1 to 20 µM | 10.1 to 20 µM | O=c1[nH]c2ncc(-c3cccc4ncccc34)nc2n1C1CCC(O)CC1 (stereo not shown) [Compound 59, 1-((1s,4s)-4-hydroxycyclohexyl)-6-(quinolin-5-yl)-1H-imidazo[4,5-b]pyrazin-2(3H)-one] |
|  | 20.1 to 30 µM | > 30 µM | O=c1[nH]c2ncc(-c3cccc4ncccc34)nc2n1C1CCC(O)CC1 (stereo not shown) [Compound 60, 1-((1r,4r)-4-hydroxycyclohexyl)-6-(quinolin-5-yl)-1H-imidazo[4,5-b]pyrazin-2(3H)-one] |
|  | 20.1 to 30 µM | 5.1 to 10 µM | CC(C)n1c(=O)[nH]c2ncc(-c3cccc4ncccc34)nc21 [Compound 64, 1-isopropyl-6-(quinolin-5-yl)-1H-imidazo[4,5-b]pyrazin-2(3H)-one] |
|  | 0.1 to 5 µM | 5.1 to 10 µM | CC(c1ccc(Cl)cc1)n1c(=O)[nH]c2ncc(-c3cccc4ncccc34)nc21 (stereo not shown) [Compound 65, 1-(1-(4-chlorophenyl)ethyl)-6-(quinolin-5-yl)-1H-imidazo[4,5-b]pyrazin-2(3H)-one] |
